# From US6534520B2, “Antiviral compounds” (priority 1997, dated 2003)
# Where two headings read alike, the source gives them in different places.
# Experiments:
# [1] = Cytotoxicity run with the Rhinovirus test
# [2] = Cytotoxicity run with the Parainfluenza test
# Influenza B = assay: microbe, parasite or virus in culture; assay type: cell-based; details: for IC50: Influenza B virus
# [3] = Cytotoxicity run with the Adenovirus test
# [4] = tested on: Respiratory Syncitial Virus (RSV); assay: Antiviral activity against RSV (CPE inhibition / neutral red); assay type: cell-based
# [5] = Cytotoxicity run with the RSV test
# Rhinovirus (RV) = assay: Antiviral activity against Rhinovirus (CPE inhibition / neutral red); assay type: cell-based; details: for IC50: Enterovirus, read-out: RV IC50
# HIVROJO = assay: Anti-HIV activity against HIVROJO in PBMCs; assay type: cell-based; details: for IC50: Human immunodeficiency virus 1, PBMC, read-out: HIVROJO (PBMCs) IC50
# HIVTEKI = assay: Anti-HIV activity against HIVTEKI in PBMCs; details: Human immunodeficiency virus 1, PBMC, read-out: HIVTEKI (PBMCs) IC50
# Influenza A = assay: microbe, parasite or virus in culture; assay type: cell-based; details: for IC50: Influenza A virus, read-out: INFLUENZA A IC50
# [6] = Cytotoxicity in PBMCs (anti-HIV tests); assay type: cell-based; details: human; PBMCs, HIVROJO
# Adenovirus = assay: Antiviral activity against Adenovirus (CPE inhibition / neutral red); assay type: cell-based
# Parainfluenza = assay: Antiviral activity against Parainfluenza (CPE inhibition / neutral red); assay type: cell-based
# [7] = Cytotoxicity run with the Influenza A test; assay type: cell-based
# Description: (§1) Methods For Assay Of Cytotoxicity
# (§2) In the CPE inhibition test, two wells of uninfected cells treated with each concentration of test Compound are run in parallel with the infected, treated wells. At the time CPE is determined microscopically, the toxicity control cells are also examined microscopically for any changes in cell appearance compared to normal control cells run in the same plate. These changes may be enlargement, granularity, cells with ragged edges, a filmy appearance, rounding, detachment from the surface of the well, or other changes. These changes are given a designation of T (100% toxic), PVH (partially toxic-very heavy-80%), PH (partially toxic-heavy-60%), P (partially toxic-40%), PS (partially toxic-slight-20%), or 0 (no toxicity-0%), conforming to the degree of cytotoxicity seen.
# (§3) In the neutral red dye uptake phase of the antiviral test described above, the two toxicity control wells also receive neutral red and the degree of color intensity is determined spectrophotometrically. A neutral red CC50 (NRCC50) is subsequently determined.
# (§4) C. ^3H Thymidine Uptake Assay
# (§5) Flat bottom 96 well plates are plated with 5X10E3 Vero-34 cells/well and 1X10E4 Hs68 or Wi-38 cells/well respectively and incubated overnight at 37° C. and 5% CO2/air. After incubation, the supernatant medium is removed and replaced with test Compound dilutions in 2% DMEM (150 ul). The cells are then incubated 48 hours in a 5% CO2 incubator at 37° C.
# (§6) 50 μl/well of 10 uCi/ml solution of [3H]-methyl thymidine (specific activity of approx. 2Ci/mmol) is added to the culture medium and incubated overnight (18 hours) in a 5% CO2 incubator at 37° C.
# (§7) Cells are then collected onto a fiberglass filter (Printed Filtermat A 1450-421 Wallac) with a Tomtec cell harvester. Suspended cells are collected directly onto filter while for adherent cells, the medium is first removed, then the cells washed with PBS and trypsinized for 2-3 minutes (50 μl trypsin/well) before collecting.
# (§8) Filters are dried for 1 hour at 37-40° C. and then placed into bags (1450-microbeta #1450-432 Wallac) with 4.5 ml of Betascint and counts obtained with Microbeta 1450 Wallac (protocol 1).
# (§9) The percent of cell proliferation is determined by comparison to the control (no test Compound) and thereby establishing 50% inhibitory concentration is established.
# [8] = Cytotoxicity run with the Influenza B test; assay type: cell-based
# Description: as §1, §2, §3, §4, §5, §6, §7, §8, §9
# HSV-1 = assay: Antiviral activity against HSV-1 (CPE inhibition / neutral red); assay type: cell-based, herpes simplex virus type 1
# [9] = Cytotoxicity run with the HSV-1 test
# [10] = Cytotoxicity run with the HSV-2 test
# HSV-2 = assay: Antiviral activity against HSV-2 (CPE inhibition / neutral red); assay type: cell-based, herpes simplex virus type 2
# uninfected cells [11] = assay: Cytotoxicity run with the Parainfluenza test; details: cytotoxicity, Parainfluenza test
# uninfected cells [12] = tested on: uninfected cells
# uninfected cells [13] = assay: Cytotoxicity run with the Adenovirus test; details: cytotoxicity, Adenovirus test
# uninfected cells [14] = tested on: uninfected cells; remark: listed apart in the source
# PBMCs = assay: Cytotoxicity in PBMCs (anti-HIV tests); assay type: cell-based
# uninfected cells [15] = tested on: uninfected cells; remark: listed apart in the source
# uninfected cells [16] = tested on: uninfected cells; remark: listed apart in the source
# uninfected cells [17] = assay: Cytotoxicity run with the Influenza A test; assay type: cell-based
# Description: as §1, §2, §3, §4, §5, §6, §7, §8, §9
# uninfected cells [18] = assay: Cytotoxicity run with the Influenza B test; assay type: cell-based
# Description: as §1, §2, §3, §4, §5, §6, §7, §8, §9
# [19] = human respiratory syncytial virus; read-out: RSV IC50
# [20] = unidentified adenovirus; read-out: ADENOVIRUS IC50
# [21] = Human alphaherpesvirus 1; read-out: HSV-1 IC50
smiles,measurement,setting,value
"C=Cc1cncc2ccc(C(=O)NCc3ccccc3OC(C)C)nc12 [#63, 8-(vinyl)-[1,6]Naphthyridine-2-carboxylic acid 2-isopropoxybenzylamine]",CC50,[1],9 µg/mL
same,CC50,[2],8 µg/mL
same,IC50,Influenza B,5.2 µg/mL
same,CC50,[3],7 µg/mL
same,IC50,[4]; [19],12 µg/mL
same,CC50,[5],5 µg/mL
same,IC50,Rhinovirus (RV); Rhinovirus,2 µg/mL
same,IC50,"HIVROJO; HIVROJO, PBMCs",0.7 µg/mL
same,IC50,HIVTEKI,4.9 µg/mL
same,IC50,Influenza A,5.6 µg/mL
same,CC50,[6],7 µg/mL
same,IC50,Adenovirus; [20],9 µg/mL
same,IC50,Parainfluenza,10 µg/mL
same,CC50,[7],5.6 µg/mL
same,CC50,[8],2.4 µg/mL
"Cc1cncc2ccc(C(=O)NCc3ccccc3OC(C)C)nc12 [#64, 8-(methyl)-[1,6]Naphthyridine-2-carboxylic acid 2-isopropoxybenzylamine]",IC50,HSV-1; [21],2 µg/mL
same,CC50,[1],16 µg/mL
same,CC50,[2],1 µg/mL
same,IC50,Influenza B,1.8 µg/mL
same,CC50,[3],1 µg/mL
same,IC50,[4]; [19],0.6 µg/mL
same,CC50,[5],0.6 µg/mL
same,IC50,Rhinovirus (RV); Rhinovirus,> 0.08 µg/mL
same,IC50,"HIVROJO; HIVROJO, PBMCs",0.28 µg/mL
same,IC50,HIVTEKI,0.8 µg/mL
same,IC50,Influenza A,2.4 µg/mL
same,CC50,[6],4.3 µg/mL
same,IC50,Adenovirus; [20],3 µg/mL
same,IC50,Parainfluenza,1 µg/mL
same,CC50,[9],3.5 µg/mL
same,CC50,[7],2.4 µg/mL
same,CC50,[8],1.8 µg/mL
"C[C@@H](NC(=O)c1ccc2cncc(Br)c2n1)c1ccccc1 [#66, 8-Bromo-[1,6]naphthyridine-2-carboxylic acid (1-phenyl-ethyl)-amide]",IC50,"HSV-1; Human alphaherpesvirus 1, read-out: HSV-1 IC50",1 µg/mL
same,CC50,[1],3 µg/mL
same,CC50,[2],10 µg/mL
same,IC50,Influenza B,18 µg/mL
same,CC50,[3],8 µg/mL
same,IC50,"[4]; human respiratory syncytial virus, read-out: RSV IC50",4 µg/mL
same,CC50,[5],5 µg/mL
same,IC50,Rhinovirus (RV),0.3 µg/mL
same,IC50,HIVROJO,1.4 µg/mL
same,IC50,HIVTEKI,2.2 µg/mL
same,IC50,Influenza A,56 µg/mL
same,CC50,[6],27.3 µg/mL
same,IC50,"Adenovirus; unidentified adenovirus, read-out: ADENOVIRUS IC50",9 µg/mL
same,IC50,Parainfluenza,83 µg/mL
same,CC50,[9],20 µg/mL
same,CC50,[7],24 µg/mL
same,CC50,[8],18 µg/mL
"O=C(NCCc1ccccc1)C1=Cc2ccncc2CC1 [#67, 7,8-Dihydro-isoquinoline-6-carboxylic acid phenethyl-amide]",IC50,HSV-1; [21],16 µg/mL
same,CC50,[10],> 100 µg/mL
same,CC50,[1],40 µg/mL
same,CC50,[2],30 µg/mL
same,IC50,Influenza B,> 100 µg/mL
same,CC50,[3],30 µg/mL
same,IC50,HSV-2; Human alphaherpesvirus 2,86 µg/mL
same,IC50,[4]; [19],> 100 µg/mL
same,CC50,[5],30 µg/mL
same,IC50,Rhinovirus (RV); Rhinovirus,> 20 µg/mL
same,IC50,"HIVROJO; HIVROJO, PBMCs",8.6 µg/mL
same,IC50,HIVTEKI,41.2 µg/mL
same,IC50,Influenza A,> 100 µg/mL
same,CC50,[6],74.7 µg/mL
same,IC50,Adenovirus; [20],> 100 µg/mL
same,IC50,Parainfluenza,100 µg/mL
same,CC50,[9],> 100 µg/mL
same,CC50,[7],> 100 µg/mL
same,CC50,[8],> 100 µg/mL
O=C(NCCc1c[nH]c2ccccc12)C1=Cc2ccncc2CC1 [#68],HSV-1 IC50,HSV-1; HSV-1,0.72 µg/mL
same,PARAINFLUENZA CC50,uninfected cells [11],25 µg/mL
same,INFLUENZA B IC50,Influenza B; Influenza B,7.2 µg/mL
same,HSV-1 CC50,uninfected cells [12],12 µg/mL
same,ADENOVIRUS CC50,uninfected cells [13],30 µg/mL
same,HSV-2 IC50,HSV-2; HSV-2,0.96 µg/mL
same,RSV IC50,[4]; RSV,60 µg/mL
same,RV IC50,Rhinovirus (RV); Rhinovirus,2 µg/mL
same,HIVROJO (PBMCs) IC50,"HIVROJO; HIVROJO, PBMCs",2.9 µg/mL
same,RSV CC50,uninfected cells [14],20 µg/mL
same,INFLUENZA A IC50,Influenza A,2.1 µg/mL
same,HIVROJO (PBMCs) CC50,PBMCs,7.1 µg/mL
same,HSV-2 CC50,uninfected cells [15],14 µg/mL
same,ADENOVIRUS IC50,Adenovirus; Adenovirus,20 µg/mL
same,PARAINFLUENZA IC50,Parainfluenza; Parainfluenza,50 µg/mL
same,RV CC50,uninfected cells [16],10 µg/mL
same,INFLUENZA A CC50,uninfected cells [17],2.1 µg/mL
same,INFLUENZA B CC50,uninfected cells [18],11 µg/mL
